Tested on: Marine ostracod crustacean luciferase
Assay: Measurement of luminescence spectra of marine ostracod crustacean luciferins with luciferase
Type: biochemical
Conditions: luciferase 100 ng/mL, 50 mM Tris-HCl buffer (pH 7.5)

Row | SMILES | shift of luminescence maximum wavelength to the long wavelength side compared with native luciferin (spectrum integrated for 30 seconds) | direction of shift of biological luminescence wavelength compared with native luciferin (11)
1 | CC[C@H](C)c1nc2c(/C=C/CNC(=N)N)[nH]c(-c3c[nH]c4ccccc34)cn-2c1=O [Compound 17] | about 15 nm | 
2 | N=C(N)NCCCc1[nH]c(-c2c[nH]c3ccccc23)cn2c(=O)c(Cc3ccccc3)nc1-2 [Compound 30] |  | shifted to the short wavelength
3 | CC(c1ccccc1)c1nc2c(CCCNC(=N)N)[nH]c(-c3c[nH]c4ccccc34)cn-2c1=O (centres unmarked) [Compound 32] |  | shifted to the long wavelength
4 | CCC(c1ccccc1)c1nc2c(CCCNC(=N)N)[nH]c(-c3c[nH]c4ccccc34)cn-2c1=O (centres unmarked) [Compound 34] |  | shifted to the long wavelength
5 | CCC(C)c1nc2c(CCCNC(=N)N)[nH]c(-c3ccc4ccccc4c3)cn-2c1=O (centres unmarked) [Compound 36] |  | shifted to the short wavelength
